PubChem BioAssay AID2061108 (Research group of Professor Matthew Todd, School of …, 2025)
Active and inactive are the calls of the source. How the calls were made is not given here.

How the values were obtained:
Test in all cases: antibacterial and antifungal growth inhibition panel, profiling panel, Idler compounds, first plate, PMBN-permeabilized strains (AID 2061108)
Design in all cases: haemolysis: dose or concentration left out as unconfirmed
[1] = system: E. coli NCTC 12923 growth inhibition, 100 uM; details: E. coli NCTC 12923 growth inhibition, 100 µM; stronger effect = higher value
[2] = system: A. baumannii ATCC 17978 + PMBN growth inhibition, 100 uM; details: A. baumannii plus PMBN growth inhibition, 100 µM; stronger effect = higher value
[3] = system: M. abscessus growth inhibition, 10 uM; details: S. aureus ATCC 9144 growth inhibition; measured here: M. abscessus; at 10 µM
[4] = system: C. albicans NCPF 3281 growth inhibition, 100 uM; details: S. aureus ATCC 9144 growth inhibition; measured here: C. albicans NCPF 3281; at 100 µM; stronger effect = higher value
[5] = system: S. aureus ATCC 9144 growth inhibition, 100 uM; details: S. aureus ATCC 9144 growth inhibition; at 100 µM; stronger effect = higher value
[6] = system: E. coli NCTC 12923 + PMBN growth inhibition, 100 uM; details: S. aureus ATCC 9144 growth inhibition; measured here: E. coli plus PMBN; at 100 µM; stronger effect = higher value
[7] = system: A. baumannii ATCC 17978 growth inhibition, 100 uM; details: S. aureus ATCC 9144 growth inhibition; measured here: A. baumannii ATCC 17978; at 100 µM; stronger effect = higher value
[8] = system: M. avium growth inhibition, 10 uM; details: M. avium growth inhibition, 10 µM
[9] = system: red blood cell haemolysis; details: stronger effect = higher value; dose or concentration not given here

Structure (SMILES): COc1cccc(C(=O)NCCOCc2cccc(N)c2)c1
- inhibition [1]: -10.5%
- inhibition [2]: 23.9%
- inhibition [3]: -0.253%
- inhibition [4]: -63.9%
- inhibition [5]: 13.7% (inactive)
- inhibition [6]: 4.39%
- inhibition [7]: -1.45%
- inhibition [8]: 2.24%
- haemolysis [9]: 0.269%

Structure (SMILES): O=c1[nH]c(=O)c2cc(S(=O)(=O)Nc3cc(F)c(N4CCC(N5CCOCC5)CC4)c(F)c3)ccc2[nH]1
- inhibition [1]: -6.35%
- inhibition [2]: 19.7%
- inhibition [3]: -0.0703%
- inhibition [4]: -44.5%
- inhibition [5]: 14.7% (inactive)
- inhibition [6]: 1.59%
- inhibition [7]: 4.34%
- inhibition [8]: 0.48%
- haemolysis [9]: 0.307%

Structure (SMILES): N#Cc1cc(-c2cccc(Cl)c2)no1
- inhibition [1]: -0.811%
- inhibition [2]: 26.6%
- inhibition [3]: 0.0599%
- inhibition [4]: -135%
- inhibition [5]: 15.6% (inactive)
- inhibition [6]: 1.71%
- inhibition [7]: -0.723%
- inhibition [8]: 0.349%
- haemolysis [9]: 6.05%

Structure (SMILES): N#Cc1c(N2C[C@@H](CC(N)=O)[C@H](O)C2)nc2ccccc2c1C(F)(F)F
- inhibition [1]: 0.811%
- inhibition [2]: 28.3%
- inhibition [3]: -0.687%
- inhibition [4]: -24.4%
- inhibition [5]: 9.67% (inactive)
- inhibition [6]: 11.6%
- inhibition [7]: -4.88%
- inhibition [8]: 0.858%
- haemolysis [9]: 0.173%

Structure (SMILES): CC(C)c1cc(Nc2nc(N[C@@H](CO)C3CCCCC3)nc3[nH]ncc23)n[nH]1
- inhibition [1]: -18.2%
- inhibition [2]: 57.6%
- inhibition [3]: -0.415%
- inhibition [4]: -64%
- inhibition [5]: -3.86%
- inhibition [6]: 99.1%
- inhibition [7]: -4.22%
- inhibition [8]: 0.54%
- haemolysis [9]: 1.61%

Structure (SMILES): Nc1ncnc2cc(-c3cccc(S(=O)(=O)NC(=O)C(N)CC(=O)O)c3)sc12 (stereo not drawn)
- inhibition [1]: 0.676%
- inhibition [2]: 9.86%
- inhibition [3]: -1.16%
- inhibition [4]: -64.6%
- inhibition [5]: 15.7% (inactive)
- inhibition [6]: 8.15%
- inhibition [7]: -7.14%
- inhibition [8]: 11.9%
- haemolysis [9]: -0.194%

Structure (SMILES): COc1ccc(-c2ccc(CNc3ccnc(S(=O)(=O)F)c3)s2)cc1
- inhibition [1]: 5.81%
- inhibition [2]: 38%
- inhibition [3]: -0.879%
- inhibition [4]: 98.4%
- inhibition [5]: 24.7%
- inhibition [6]: 14.7%
- inhibition [7]: 8.21%
- inhibition [8]: -0.555%
- haemolysis [9]: 2.61%

Structure (SMILES): CS(=O)(=O)CCCNC[C@@H](O)c1ccccc1
- inhibition [1]: -6.89%
- inhibition [2]: 20.9%
- inhibition [3]: -0.256%
- inhibition [4]: -65.9%
- inhibition [5]: 14.7% (inactive)
- inhibition [6]: 1.22%
- inhibition [7]: -0.12%
- inhibition [8]: 0.187%
- haemolysis [9]: 0.325%

Structure (SMILES): CC(C)CC(N)C(=O)NS(=O)(=O)c1cccc(-c2cc3ncnc(N)c3s2)c1 (stereo not drawn)
- inhibition [1]: -84.3%
- inhibition [2]: -8.7%
- inhibition [3]: -0.687%
- inhibition [4]: 43.5%
- inhibition [5]: -17.7% (inactive)
- inhibition [6]: -22.3%
- inhibition [7]: -8.69%
- inhibition [8]: 12%
- haemolysis [9]: -0.408%

Structure (SMILES): O=C(O)c1cc(-c2ccco2)on1
- inhibition [1]: 1.89%
- inhibition [2]: 19.4%
- inhibition [3]: -0.23%
- inhibition [4]: -23.7%
- inhibition [5]: 20.4% (inactive)
- inhibition [6]: 3.29%
- inhibition [7]: -3.73%
- inhibition [8]: -0.19%
- haemolysis [9]: 0.22%

Structure (SMILES): O=C(Nc1ccc(Oc2ccccc2)cc1)c1ccc(-c2nn[nH]n2)nc1
- inhibition [1]: 0.676%
- inhibition [2]: 15.2%
- inhibition [3]: -0.682%
- inhibition [4]: -10.3%
- inhibition [5]: 15% (inactive)
- inhibition [6]: 10.6%
- inhibition [7]: -1.31%
- inhibition [8]: -0.673%
- haemolysis [9]: -0.153%

Structure (SMILES): COc1cc2nc(NCCCN(C)C)nc(N3CC(N(C)C)C3)c2cc1OC
- inhibition [1]: 11.5%
- inhibition [2]: 29.9%
- inhibition [3]: 1.59%
- inhibition [4]: -118%
- inhibition [5]: 37.5% (inactive)
- inhibition [6]: 2.07%
- inhibition [7]: 17.3%
- inhibition [8]: 5.58%
- haemolysis [9]: 0.15%

Structure (SMILES): COc1cc2nc(N3CCC(N(C)C)C3)nc(N3CCN(C(=O)OC(C)(C)C)CC3)c2cc1OC (stereo not drawn)
- inhibition [1]: 2.57%
- inhibition [2]: 29.6%
- inhibition [3]: -0.0588%
- inhibition [4]: -73.8%
- inhibition [5]: 7.89% (inactive)
- inhibition [6]: 10.1%
- inhibition [7]: -7.35%
- inhibition [8]: 3.78%
- haemolysis [9]: 0.172%

Structure (SMILES): Cn1c(=O)oc2cc(S(=O)(=O)NC3CC4CCC3C4)ccc21 (stereo not drawn)
- inhibition [1]: -0.946%
- inhibition [2]: 25.8%
- inhibition [3]: -0.526%
- inhibition [4]: -18.8%
- inhibition [5]: 17.3% (inactive)
- inhibition [6]: -2.35%
- inhibition [7]: -1.79%
- inhibition [8]: -0.637%
- haemolysis [9]: -0.134%

Structure (SMILES): O=C(NC1(c2ccc(Cl)cc2)COC1)c1ccc(N2CCCCC2)cc1
- inhibition [1]: -30%
- inhibition [2]: 13.9%
- inhibition [3]: -0.149%
- inhibition [4]: -54.3%
- inhibition [5]: 4.21% (inactive)
- inhibition [6]: -14%
- inhibition [7]: -22.2%
- inhibition [8]: 0.252%
- haemolysis [9]: 0.302%

Structure (SMILES): COc1ccc2c(c1)nc(-c1c[nH]c3ccc(N4CCSCC4)cc13)c1[nH]ccc12
- inhibition [1]: 9.46%
- inhibition [2]: 96.3%
- inhibition [3]: 0.136%
- inhibition [4]: 95%
- inhibition [5]: 98.1%
- inhibition [6]: 97%
- inhibition [7]: 98.1%
- inhibition [8]: 3%
- haemolysis [9]: 1.04%

Structure (SMILES): Nc1ncnc2cc(-c3cccc(S(=O)(=O)NC(=O)C(N)Cc4ccccc4)c3)sc12 (stereo not drawn)
- inhibition [1]: -49.3%
- inhibition [2]: 3.19%
- inhibition [3]: -0.63%
- inhibition [4]: -49.9%
- inhibition [5]: -16.5% (inactive)
- inhibition [6]: -18.8%
- inhibition [7]: 1.55%
- inhibition [8]: 11.7%
- haemolysis [9]: 0.0594%

Structure (SMILES): CCS(=O)(=O)c1ccc(CNc2nc3ccccc3cc2C#N)s1
- inhibition [1]: -13.4%
- inhibition [2]: 28.4%
- inhibition [3]: 0.173%
- inhibition [4]: -73.7%
- inhibition [5]: 22.3% (inactive)
- inhibition [6]: -0.61%
- inhibition [7]: -4.82%
- inhibition [8]: -0.121%
- haemolysis [9]: 0.247%

Structure (SMILES): CCOc1ccc(-c2cc(=O)n(CC(=O)N3CCC(Cc4ccccc4)CC3)cn2)cc1
- inhibition [1]: -16.4%
- inhibition [2]: 11%
- inhibition [3]: -1.03%
- inhibition [4]: -40.2%
- inhibition [5]: 5.33% (inactive)
- inhibition [6]: 4.32%
- inhibition [7]: -13.5%
- inhibition [8]: 0.214%
- haemolysis [9]: 2.13%

Structure (SMILES): N#Cc1c(N2Cc3cccc(O)c3C2)nc2ccccc2c1C(F)(F)F
- inhibition [1]: 2.16%
- inhibition [2]: 33.9%
- inhibition [3]: -1.26%
- inhibition [4]: 3.66%
- inhibition [5]: 97%
- inhibition [6]: 35.4%
- inhibition [7]: 23.8%
- inhibition [8]: 0.654%
- haemolysis [9]: -0.139%

Structure (SMILES): CC(C)C(N)C(=O)NS(=O)(=O)c1cccc(-c2cc3ncnc(N)c3s2)c1 (stereo not drawn)
- inhibition [1]: -28.5%
- inhibition [2]: -10.9%
- inhibition [3]: -0.361%
- inhibition [4]: -123%
- inhibition [5]: -22.3% (inactive)
- inhibition [6]: -17.2%
- inhibition [7]: -15.1%
- inhibition [8]: 16.2%
- haemolysis [9]: 0.218%

Structure (SMILES): O=C(NCCn1ccc2ccccc21)Nc1c[nH]c2ccccc12
- inhibition [1]: -5.81%
- inhibition [2]: 55%
- inhibition [3]: 0.723%
- inhibition [4]: -13.8%
- inhibition [5]: 1.75% (inactive)
- inhibition [6]: 8.41%
- inhibition [7]: 1.2%
- inhibition [8]: 1.09%
- haemolysis [9]: 0.223%

Structure (SMILES): N#Cc1c(Cl)nc2ccccc2c1C(F)(F)F
- inhibition [1]: -10%
- inhibition [2]: 31.1%
- inhibition [3]: 0.0452%
- inhibition [4]: -47.1%
- inhibition [5]: 10% (inactive)
- inhibition [6]: -1.22%
- inhibition [7]: 3.86%
- inhibition [8]: 0.667%
- haemolysis [9]: 0.129%

Structure (SMILES): N#Cc1ccc(NC2Cc3cccc(O)c3C2)cc1C(F)(F)F (stereo not drawn)
- inhibition [1]: 22.3%
- inhibition [2]: 100%
- inhibition [3]: -0.648%
- inhibition [4]: 100%
- inhibition [5]: 99.7%
- inhibition [6]: 100%
- inhibition [7]: 68.5%
- inhibition [8]: -0.176%
- haemolysis [9]: 2.84%

Structure (SMILES): O=S(=O)(c1ccc2nncn2c1)N(Cc1cccc(F)c1)c1ccc2c(c1)OCCO2
- inhibition [1]: -55.8%
- inhibition [2]: 11.3%
- inhibition [3]: -0.196%
- inhibition [4]: -82.4%
- inhibition [5]: -8.6% (inactive)
- inhibition [6]: -20.9%
- inhibition [7]: -2.17%
- inhibition [8]: -0.711%
- haemolysis [9]: 8.17%

Structure (SMILES): CN(C)C(=O)c1cncc(-c2cccc(C3(C#N)CC3)c2)c1
- inhibition [1]: -5%
- inhibition [2]: 23.7%
- inhibition [3]: -0.0258%
- inhibition [4]: -67.1%
- inhibition [5]: 4.91% (inactive)
- inhibition [6]: -3.05%
- inhibition [7]: 3.37%
- inhibition [8]: 0.148%
- haemolysis [9]: 0.107%

Structure (SMILES): O=c1[nH]c(=O)c2cc(S(=O)(=O)Nc3cc(F)c(NCCN4CCOCC4)c(F)c3)ccc2[nH]1
- inhibition [1]: -4.32%
- inhibition [2]: 12%
- inhibition [3]: -0.977%
- inhibition [4]: -21.1%
- inhibition [5]: 17.7% (inactive)
- inhibition [6]: 0.988%
- inhibition [7]: -1.9%
- inhibition [8]: -0.106%
- haemolysis [9]: -0.0292%
